The target in this assay is T1, Rhesus PDE2A3 (Macaca mulatta, UniProt B3VTJ2).
T1 construct: made in house; host or cells: AD293 cells, transient transfection, pcDNA3.3-TOPO; lysate supernatant used as enzyme
T1 sequence (B3VTJ2 1-941): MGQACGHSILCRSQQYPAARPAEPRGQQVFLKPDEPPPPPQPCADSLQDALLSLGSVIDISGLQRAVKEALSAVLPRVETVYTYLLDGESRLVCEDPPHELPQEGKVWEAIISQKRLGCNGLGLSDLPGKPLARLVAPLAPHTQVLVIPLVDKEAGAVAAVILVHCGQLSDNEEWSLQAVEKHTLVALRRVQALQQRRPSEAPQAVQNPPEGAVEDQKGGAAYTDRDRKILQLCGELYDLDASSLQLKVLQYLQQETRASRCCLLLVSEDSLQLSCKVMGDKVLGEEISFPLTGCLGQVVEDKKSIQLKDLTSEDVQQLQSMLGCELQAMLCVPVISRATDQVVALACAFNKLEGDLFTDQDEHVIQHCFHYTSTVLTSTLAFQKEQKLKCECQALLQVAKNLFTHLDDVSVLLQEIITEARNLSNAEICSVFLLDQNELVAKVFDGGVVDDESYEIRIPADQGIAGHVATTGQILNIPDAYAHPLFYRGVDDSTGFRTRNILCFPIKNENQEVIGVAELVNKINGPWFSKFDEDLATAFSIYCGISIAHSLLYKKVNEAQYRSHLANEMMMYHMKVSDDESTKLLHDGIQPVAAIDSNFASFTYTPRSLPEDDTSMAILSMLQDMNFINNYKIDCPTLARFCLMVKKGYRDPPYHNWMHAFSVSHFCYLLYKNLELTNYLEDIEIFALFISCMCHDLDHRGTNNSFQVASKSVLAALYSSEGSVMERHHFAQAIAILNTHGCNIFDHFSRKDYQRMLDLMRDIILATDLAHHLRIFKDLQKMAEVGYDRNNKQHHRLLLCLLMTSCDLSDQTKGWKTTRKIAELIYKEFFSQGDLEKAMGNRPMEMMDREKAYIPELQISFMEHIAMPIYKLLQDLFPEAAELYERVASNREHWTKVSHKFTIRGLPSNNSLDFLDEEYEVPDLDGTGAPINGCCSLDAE
Put plainly: PDE2 fluorescence polarization (IMAP FP) inhibition assay, rhesus enzyme. Type of assay: biochemical, rhesus macaque. In outline:
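Lysate of AD293 cells transiently expressing rhesus PDE2A3, diluted for ~20% substrate conversion, with 50 nM FAM-cAMP and 1 uM cGMP activator in pH 7.2 Tris/MgCl2 buffer, 60 min at room temperature.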

The mark [1] stands for this setting: Lab A, read-out: Rhesus PDE2 Ki (nM) Lab A.
Setting [2] is: Lab B, read-out: Rhesus PDE2 Ki (nM) Lab B.

Read-outs that look alike come from different tables or passages of the source.

For orientation: Ki means the dissociation constant of the complex between target and ligand, obtained from inhibition or displacement. As to `COc1cc(C(F)(F)F)ccc1[C@@H](C)n1cc(-c2cc(=O)[nH]c(C)n2)cn1` (single isomer, unassigned) [Example 2], the inhibition constant (Ki) reads like this: under setting [1], 43.9 nM; under setting [2], 35.3 nM. As for `Cc1nc(-n2cc([C@H](C)c3ccc(C(F)(F)F)cc3)cn2)cc(=O)[nH]1` (single isomer, unassigned) [Example 3], the inhibition constant (Ki) under setting [2] stood at 93 nM. Regarding `Cc1nc(-n2cc([C@H](C)c3ccc(C(F)(F)F)cc3)cn2)cc(=O)[nH]1` (single isomer, unassigned) [Example 4], the inhibition constant Ki under setting [2] stood at 29.5 nM. With `Cc1nc(-n2ccc([C@H](C)c3ccc(C(F)(F)F)cc3)n2)cc(=O)[nH]1` (single isomer, unassigned) [Example 5], the inhibition constant (Ki) under setting [2] is 285 nM.

For `Cc1nc(-n2ccc([C@H](C)c3ccc(C(F)(F)F)cc3)n2)cc(=O)[nH]1` (single isomer, unassigned) [Example 6], under setting [2], the inhibitory constant (Ki) was 466 nM.

Take `Cc1nc(-n2cc([C@](C)(O)c3ccc(C(F)(F)F)cc3F)cn2)cc(=O)[nH]1` (single isomer, unassigned) [Example 15]: the Ki under setting [2] amounted to 15.6 nM. `Cc1nc(-n2cc([C@](C)(O)c3ccc(C(F)(F)F)cc3F)cn2)cc(=O)[nH]1` (single isomer, unassigned) [Example 16]: the inhibition constant (Ki) under setting [2] was 75.8 nM. Still for that read-out and setting: as for `Cc1nc(-n2cc([C@H](CO)c3ccc(C(F)(F)F)cc3F)cn2)cc(=O)[nH]1` (single isomer, unassigned) [Example 19], the figure is 105 nM. Same read-out and setting: under `Cc1nc(-n2cc([C@H](CO)c3ccc(C(F)(F)F)cc3F)cn2)cc(=O)[nH]1` (single isomer, unassigned) [Example 20] stands 18.2 nM; under `Cc1nc(-n2cc([C@]3(c4ccc(C(F)(F)F)cc4)CCCO3)cn2)cc(=O)[nH]1` (single isomer, unassigned) [Example 21], 213 nM; under `Cc1nc(-n2cc([C@]3(c4ccc(C(F)(F)F)cc4)CCCO3)cn2)cc(=O)[nH]1` (single isomer, unassigned) [Example 22], 41.9 nM. The same measure, in the same setting: as for `Cc1nc(-c2cc([C@H](C)c3ccc(C(F)(F)F)cc3)[nH]n2)cc(=O)[nH]1` (single isomer, unassigned) [Example 23], the figure is 29.3 nM; as for `Cc1nc(-c2cc([C@H](C)c3ccc(C(F)(F)F)cc3)[nH]n2)cc(=O)[nH]1` (single isomer, unassigned) [Example 24], 154 nM. For `Cc1nc(-n2cc(C3(C)OCc4cc(C(F)(F)F)ccc43)cn2)cc(=O)[nH]1` (single isomer, unassigned) [Example 27], under setting [2], the Ki worked out at 98 nM. Same read-out and setting: under `Cc1nc(-n2cc(C3(C)OCc4cc(C(F)(F)F)ccc43)cn2)cc(=O)[nH]1` (single isomer, unassigned) [Example 28] stands 94.5 nM; under `Cc1nc(-n2cc(C(C)c3ccc(C(F)(F)F)cc3F)cn2)cc(=O)[nH]1` (single isomer, unassigned) [Example 52, (R)- or (S)-6-(4-(1-(2-fluoro-4-(trifluoromethyl)phenyl)ethyl)-1H-pyrazol-1-yl)-2-methylpyrimidin-4(3H)-one], 7.2 nM; under `Cc1nc(-n2cc(C(C)c3ccc(C(F)(F)F)cc3F)cn2)cc(=O)[nH]1` (single isomer, unassigned) [Example 53, (S)- or (R)-6-(4-(1-(2-fluoro-4-(trifluoromethyl)phenyl)ethyl)-1H-pyrazol-1-yl)-2-methylpyrimidin-4(3H)-one], 64.5 nM. Consider `Cc1nc(-c2cnn(C(C)c3ccc(C(F)(F)F)cc3C)c2)cc(=O)[nH]1` (single isomer, unassigned) [Example 57, (S)- or (R)-2-methyl-6-(1-(1-(2-methyl-4-(trifluoromethyl)phenyl)ethyl)-1H-pyrazol-4-yl)pyrimidin-4(3H)-one], for which the Ki runs as follows: under setting [1], 13.1 nM; under setting [2], 13 nM. For `COc1ccc(Cc2nc(-c3cnn(C(C)c4ccc(C(F)(F)F)cc4)c3)cc(=O)[nH]2)cc1OC` (single isomer, unassigned) [Example 60, (R)- or (S)-2-(3,4-dimethoxybenzyl)-6-(1-(1-4-(trifluoromethyl)phenyl)ethyl)-1H-pyrazol-4-yl)pyrimidin-4(3H)-one], in that order: 3.6 nM and 2.4 nM.

Take `COc1ccc(Cc2nc(-c3cnn(C(C)c4ccc(C(F)(F)F)cc4)c3)cc(=O)[nH]2)cc1OC` (single isomer, unassigned) [Example 61, (S)- or (R)-2-(3,4-dimethoxybenzyl)-6-(1-(1-(4-(trifluoromethyl)phenyl)ethyl)-1H-pyrazol-4-yl)pyrimidin-4(3H)-one]: the inhibition constant (Ki) by setting is: under setting [1], 2 nM; under setting [2], 1.8 nM. Take `Cc1nc(-c2cnn(C(C)c3ccc(S(F)(F)(F)(F)F)cc3)c2)cc(=O)[nH]1` (single isomer, unassigned) [Example 62, (R)- or (S)-2-methyl-6-(1-(1-(4-(pentafluorosulfanyl)phenyl)ethyl)-1H-pyrazol-4-yl)pyrimidin-4(3H)-one]: under setting [2], the Ki was determined as 143 nM.

`Cc1nc(-c2cnn(C(C)c3ccc(S(F)(F)(F)(F)F)cc3)c2)cc(=O)[nH]1` (single isomer, unassigned) [Example 63, (S)- or (R)-2-methyl-6-(1-(1-(4-(pentafluorosulfanyl)phenyl)ethyl)-1H-pyrazol-4-yl)pyrimidin-4(3H)-one]: the inhibitory constant (Ki) under setting [2] worked out at 99.3 nM. For `COc1ccc(Cc2nc(-c3cnn(C(C)c4ccc(S(F)(F)(F)(F)F)cc4)c3)cc(=O)[nH]2)cc1OC` (single isomer, unassigned) [Example 64, (R)- or (S)-2-(3,4-dimethoxybenzyl)-6-(1-(1-(4-(pentafluorosulfanyl)phenyl)ethyl)-1H-pyrazol-4-yl)pyrimidin-4(3H)-one], the Ki is 7.2 nM under setting [1] and 3.5 nM under setting [2]. As for `COc1ccc(Cc2nc(-c3cnn(C(C)c4ccc(S(F)(F)(F)(F)F)cc4)c3)cc(=O)[nH]2)cc1OC` (single isomer, unassigned) [Example 65, (S)- or (R)-2-(3,4-dimethoxybenzyl)-6-(1-(1-(4-(pentafluorosulfanyl)phenyl)ethyl)-1H-pyrazol-4-yl)pyrimidin-4(3H)-one 4(3H)-one], the Ki under setting [1] was 22 nM and the Ki under setting [2] is 9.9 nM. On to `COc1ccc(Cc2nc(-c3cnn(C(C)c4ccc(C(F)(F)F)cc4F)c3)cc(=O)[nH]2)cc1OC` (single isomer, unassigned) [Example 66, (R)- or (S)-2-(3,4-dimethoxybenzyl)-6-(1-(1-(2-fluoro-4-(trifluoromethyl)phenyl)ethyl)-1H-pyrazol-4-yl)pyrimidin-4(3H)-one], for which the Ki under setting [2] turned out to be 0.8 nM.

As to `COc1ccc(Cc2nc(-c3cnn(C(C)c4ccc(C(F)(F)F)cc4F)c3)cc(=O)[nH]2)cc1OC` (single isomer, unassigned) [Example 67], the Ki by setting is: under setting [1], 0.2 nM; under setting [2], 0.1 nM. Consider `Cc1nc(-c2ccn(C(C)c3ccc(C(F)(F)F)cc3)n2)cc(=O)[nH]1` (single isomer, unassigned) [Example 77, (R)- or (S)-2-methyl-6-(1-(1-(4-(trifluoromethyl)phenyl)ethyl)-1H-pyrazol-3-yl)pyrimidin-4(3H)-one], for which the inhibition constant (Ki) under setting [2] was found to be 542 nM.

Turning to `Cc1nc(-c2ccn(C(C)c3ccc(C(F)(F)F)cc3)n2)cc(=O)[nH]1` (single isomer, unassigned) [Example 78, (S)- or (R)-2-methyl-6-(1-{(1R)-1-[4-(trifluoromethyl)phenyl]ethyl}-1H-pyrazol-3-yl)pyrimidin-4(3H)-one], under setting [2], the inhibition constant (Ki) worked out at 318 nM. The same measure, in the same setting: under `Cc1nc(-c2cnn(C(C)c3ccc(C(F)(F)F)cc3)c2C)cc(=O)[nH]1` (single isomer, unassigned) [Example 81, (R)- or (S)-2-methyl-6-(5-methyl-1-(1-(4-(trifluoromethyl)phenyl)ethyl)-1H-pyrazol-4-yl)pyrimidin-4(3H)-one] stands 232 nM; under `Cc1nc(-c2cnn(C(C)c3ccc(C(F)(F)F)cc3)c2C)cc(=O)[nH]1` (single isomer, unassigned) [Example 82, (S)- or (R)-2-methyl-6-(5-methyl-1-{(1R)-1-[4-(trifluoromethyl)phenyl]ethyl}-1H-pyrazol-4-yl)pyrimidin-4(3H)-one], 192 nM. Consider `Cc1nc(-c2cnn(C(C)c3ccc(C(F)(F)F)cc3Cl)c2)cc(=O)[nH]1` (single isomer, unassigned) [Example 83, (R)- or (S)-6-(1-(1-(2-chloro-4-(trifluoromethyl)phenyl)ethyl)-1H-pyrazol-4-yl)-2-methylpyrimidin-4(3H)-one], for which the Ki under setting [1] was determined as 6.2 nM.

(Values after patent US10287269B2, “Pyrazolyl pyrimidinone compounds as PDE2 inhibitors” (Merck Sharp & Dohme Corp., priority 2015, dated 2019).)
